In ChEMBL document CHEMBL1275392, “Assessment of chemoselective neoglycosylation methods using chlorambucil as a model” (2010):

What was measured:
Type in all cases: functional
MCF7 [1] = assay: Growth inhibition of human MCF7 cells at 10 uM after 7 days by celltiter-glo assay; details: MCF7, 168 h, read-out: GI
UO-31 = assay: Growth inhibition of human UO31 cells at 10 uM after 7 days by celltiter-glo assay; details: UO-31, 168 h, read-out: GI
TK-10 = assay: Growth inhibition of human TK10 cells at 10 uM after 7 days by celltiter-glo assay; details: TK-10, 168 h, read-out: GI
A498 = assay: Growth inhibition of human A498 cells at 10 uM after 7 days by celltiter-glo assay; details: A498, 168 h, read-out: GI
OVCAR-8 [2] = assay: Growth inhibition of human OVCAR8 cells at 10 uM after 7 days by celltiter-glo assay; details: OVCAR-8, 168 h, read-out: GI
OVCAR-5 = assay: Growth inhibition of human OVCAR5 cells at 10 uM after 7 days by celltiter-glo assay; details: OVCAR-5, 168 h, read-out: GI
OVCAR-3 = assay: Growth inhibition of human OVCAR-3 cells at 10 uM after 7 days by celltiter-glo assay; details: OVCAR-3, 168 h, read-out: GI
UACC-62 = assay: Growth inhibition of human UACC62 cells at 10 uM after 7 days by celltiter-glo assay; details: UACC-62, 168 h, read-out: GI
SK-MEL-5 = assay: Growth inhibition of human SK-MEL-5 cells at 10 uM after 7 days by celltiter-glo assay; details: SK-MEL-5, 168 h, read-out: GI
SK-MEL-28 [3] = assay: Growth inhibition of human SK-MEL-28 cells at 10 uM after 7 days by celltiter-glo assay; details: SK-MEL-28, 168 h, read-out: GI
MDA-MB-435 = assay: Growth inhibition of human MDA-MB-435 cells at 10 uM after 7 days by celltiter-glo assay; details: MDA-MB-435, 168 h, read-out: GI
Malme-3M [4] = assay: Growth inhibition of human MALME-3M cells at 10 uM after 7 days by celltiter-glo assay; details: 168 h, read-out: GI
LOX IMVI = assay: Growth inhibition of human LOXIMVI cells at 10 uM after 7 days by celltiter-glo assay; details: 168 h, read-out: GI
U-251 = assay: Growth inhibition of human U251 cells at 10 uM after 7 days by celltiter-glo assay; details: U-251, 168 h, read-out: GI
SF-539 = assay: Growth inhibition of human SF539 cells at 10 uM after 7 days by celltiter-glo assay; details: SF-539, 168 h, read-out: GI
SF-295 = assay: Growth inhibition of human SF295 cells at 10 uM after 7 days by celltiter-glo assay; details: SF-295, 168 h, read-out: GI
SF-268 = assay: Growth inhibition of human SF268 cells at 10 uM after 7 days by celltiter-glo assay; details: SF-268, 168 h, read-out: GI
HCT-15 [5] = assay: Growth inhibition of human HCT15 cells at 10 uM after 7 days by celltiter-glo assay; details: HCT-15, 168 h, read-out: GI
HCT-116 = assay: Growth inhibition of human HCT116 cells at 10 uM after 7 days by celltiter-glo assay; details: HCT-116, 168 h, read-out: GI
HCC 2998 = assay: Growth inhibition of human HCC2998 cells at 10 uM after 7 days by celltiter-glo assay; details: HCC 2998, 168 h, read-out: GI
NCI-H460 = assay: Growth inhibition of human NCI-H460 cells at 10 uM after 7 days by celltiter-glo assay; details: NCI-H460, 168 h, read-out: GI
EKVX = assay: Growth inhibition of human EKVX cells at 10 uM after 7 days by celltiter-glo assay; details: 168 h, read-out: GI
SR [6] = assay: Growth inhibition of human SR cells at 10 uM after 7 days by celltiter-glo assay; details: 168 h, read-out: GI
MOLT-4 [7] = assay: Growth inhibition of human MOLT4 cells at 10 uM after 7 days by celltiter-glo assay; details: MOLT-4, 168 h, read-out: GI
K562 = assay: Growth inhibition of human K562 cells at 10 uM after 7 days by celltiter-glo assay; details: K562, 168 h, read-out: GI
CCRF-CEM = assay: Growth inhibition of human CCRF-CEM cells at 10 uM after 7 days by celltiter-glo assay; details: 168 h, read-out: GI
SK-MEL-2 = assay: Growth inhibition of human SK-MEL-2 cells after 7 days by celltiter-glo assay; details: SK-MEL-2, 168 h
SK-MEL-28 [8] = assay: Growth inhibition of human SK-MEL-28 cells after 7 days by celltiter-glo assay; details: SK-MEL-28, 168 h
OVCAR-8 [9] = assay: Growth inhibition of human OVCAR8 cells after 7 days by celltiter-glo assay; details: OVCAR-8, 168 h
786-0 = assay: Growth inhibition of human 786-0 cells after 7 days by celltiter-glo assay; details: 786-0, 168 h
SN12C = assay: Growth inhibition of human SN12C cells after 7 days by celltiter-glo assay; details: 168 h
MCF7 [10] = assay: Growth inhibition of human MCF7 cells after 7 days by celltiter-glo assay; details: MCF7, 168 h
MDA-MB-231 = assay: Growth inhibition of human MDA-MB-231 cells after 7 days by celltiter-glo assay; details: MDA-MB-231, 168 h
[11] = Growth inhibition of human Hs 578T cells after 7 days by celltiter-glo assay; details: 168 h
BT-549 = assay: Growth inhibition of human BT549 cells after 7 days by celltiter-glo assay; details: BT-549, 168 h
MDA-MB-468 = assay: Growth inhibition of human MDA-MB-468 cells after 7 days by celltiter-glo assay; details: MDA-MB-468, 168 h
HT-29 = assay: Ratio of compound GI50 to chlorambucil GI50 for human HT-29 cells
HCT-15 [12] = assay: Ratio of compound GI50 to chlorambucil GI50 for human HCT15 cells
Malme-3M [13] = assay: Growth inhibition of human MALME-3M cells after 7 days by celltiter-glo assay; details: 168 h
PC-3 = assay: Growth inhibition of human PC3 cells after 7 days by celltiter-glo assay; details: PC-3, 168 h
SW-620 = assay: Growth inhibition of human SW620 cells after 7 days by celltiter-glo assay; details: SW-620, 168 h
KM12 = assay: Growth inhibition of human KM12 cells after 7 days by celltiter-glo assay; details: KM12, 168 h
NCI-H226 = assay: Growth inhibition of human NCI-H226 cells after 7 days by celltiter-glo assay; details: NCI-H226, 168 h
HOP-62 = assay: Growth inhibition of human HOP62 cells after 7 days by celltiter-glo assay; details: HOP-62, 168 h
SR [14] = assay: Growth inhibition of human SR cells after 7 days by celltiter-glo assay; details: 168 h
MOLT-4 [15] = assay: Growth inhibition of human MOLT4 cells after 7 days by celltiter-glo assay; details: MOLT-4, 168 h

CON(CCCc1ccc(N(CCCl)CCCl)cc1)C1OC[C@@H](O)[C@@H]1O (stereo partly specified)
inhibition of growth at 10 µM (MCF7 [1]): 32.4% | inhibition of growth at 10 µM (UO-31): 54.4% | inhibition of growth at 10 µM (TK-10): 97.2% | inhibition of growth at 10 µM (A498): 114% | inhibition of growth at 10 µM (OVCAR-8 [2]): 68.1% | inhibition of growth at 10 µM (OVCAR-5): 111% | inhibition of growth at 10 µM (OVCAR-3): 85.3% | inhibition of growth at 10 µM (UACC-62): 52.1% | inhibition of growth at 10 µM (SK-MEL-5): 79% | inhibition of growth at 10 µM (SK-MEL-28 [3]): 117% | inhibition of growth at 10 µM (MDA-MB-435): 83% | inhibition of growth at 10 µM (Malme-3M [4]): 69.7% | inhibition of growth at 10 µM (LOX IMVI): 54.8% | inhibition of growth at 10 µM (U-251): 59.9% | inhibition of growth at 10 µM (SF-539): 51.8% | inhibition of growth at 10 µM (SF-295): 56.6% | inhibition of growth at 10 µM (SF-268): 67.8% | inhibition of growth at 10 µM (HCT-15 [5]): 77.1% | inhibition of growth at 10 µM (HCT-116): 69.4% | inhibition of growth at 10 µM (HCC 2998): 73.3% | inhibition of growth at 10 µM (NCI-H460): 35.8% | inhibition of growth at 10 µM (EKVX): 91.2% | inhibition of growth at 10 µM (SR [6]): 48.7% | inhibition of growth at 10 µM (MOLT-4 [7]): 64.4% | inhibition of growth at 10 µM (K562): 88.5% | inhibition of growth at 10 µM (CCRF-CEM): 21.2% | GI50 (SK-MEL-2): 20.2 µM | GI50 (SK-MEL-28 [8]): 36.5 µM | GI50 (OVCAR-8 [9]): 9.13 µM | GI50 (786-0): 6.16 µM | GI50 (SN12C): 7.06 µM | GI50 (MCF7 [10]): 1.8 µM | GI50 (MDA-MB-231): 1.39 µM | GI50 [11]: 24.7 µM | GI50 (BT-549): 13.4 µM | GI50 (MDA-MB-468): 7.25 µM | RatioGI50 (HT-29): 12 | RatioGI50 (HCT-15 [12]): 15 | GI50 (Malme-3M [13]): 20.2 µM | GI50 (PC-3): 11.7 µM | GI50 (SW-620): 12.4 µM | GI50 (KM12): 30 µM | GI50 (NCI-H226): 0.925 µM | GI50 (HOP-62): 8.28 µM | GI50 (SR [14]): 0.386 µM | GI50 (MOLT-4 [15]): 1.22 µM
